Test results as given in patent US20170232083A1, “METHODS OF DIAGNOSIS AND TREATMENT OF CELIAC DISEASE IN CHILDREN” (priority 2014, published 2017).
Several values for one entry are separate records, joined by “and”; a condition that tells them apart may be missing. Equal values may be shown once. Non-standard residues stand in square brackets, D forms with d. pGlu = O=C1CC[C@@H](C(=O)O)N1

Tested on: peripheral blood mononuclear cells obtained from children
Assay: IFNγ ELISpot PBMC assay after oral wheat bread challenge (Examples 1-2)
Type: cell-based, human
Protocol: An oral wheat bread challenge was conducted in DQ2.5+ children and adolescents having Celiac disease. The age ranges were 3-5, 6-10 and 11-18 years of age. An ELISpot peripheral blood mononucleated cell (PBMC) assay was performed to measure the level of IFNγ released by the PBMCs after being contacted with peptide 1, peptide 2, peptide 3, or a combination thereof. The identities of peptides 1, 2, and 3 are shown below.
The values the rows starting from “Blank (SFU)” and ending at “Pept-1/2/3 (150)” are all spot forming unit (SFU) values. The values in the parentheses in the first column are the concentration of each peptide in micrograms that were added to the PBMCs (e.g., Pept-1 50=50 micrograms of Peptide 1, Pept-1/2/3 50=50 micrograms of each of Peptide 1, Peptide 2, and Peptide 3). Pept-1=Peptide 1, Pept-2=Peptide 2, Pept-3=Peptide 3, the amino acid identities of which are mentioned above. D-Gli=deamidated gliadin. WT-Gli=wild-type gliadin. D-Glut=deamidated gluten. WT-Glut=wild-type gluten.
IFNγ ELISpot responses in 9 older children (11-17 yo) and 6 younger children (3-10 yo) were stimulated by the mixture of peptides 1, 2, and 3 described in Example 1 (each peptide at a concentration of 25 ug/mL) or stimulated by deamidated gliadin (100 ug/mL) after 3-day wheat challenge (r2=0.8, p<0.0001). The ELISpot responses were similar using either the peptide mixture of the deamidated gliadin (FIG. 1).

EPEQPIPEQPQPYPQQ ([pGlu]PEQPIPEQPQPYPQQ-NH2; SMILES CC[C@H](C)[C@H](NC(=O)[C@@H]1CCCN1C(=O)[C@H](CCC(N)=O)NC(=O)[C@H](CCC(=O)O)NC(=O)[C@@H]1CCCN1C(=O)[C@@H]1CCC(=O)N1)C(=O)N1CCC[C@H]1C(=O)N[C@@H](CCC(=O)O)C(=O)N[C@@H](CCC(N)=O)C(=O)N1CCC[C@H]1C(=O)N[C@@H](CCC(N)=O)C(=O)N1CCC[C@H]1C(=O)N[C@@H](Cc1ccc(O)cc1)C(=O)N1CCC[C@H]1C(=O)N[C@@H](CCC(N)=O)C(=O)N[C@@H](CCC(N)=O)C(N)=O) [Peptide 3]
SFU, IFNγ ELISpot (Subject A, 5.0 × 10^5 cells per well, 50 micrograms): 0 SFU
SFU, IFNγ ELISpot (Subject C, 5.0 × 10^5 cells per well, 50 micrograms): 3 SFU
SFU, IFNγ ELISpot (Subject D, 4.0 × 10^5 cells per well, 25 micrograms, listed as Pept-3): 2 SFU and 4 SFU
SFU, IFNγ ELISpot (Subject D, 4.0 × 10^5 cells per well, 50 micrograms): 2 SFU
SFU, IFNγ ELISpot (Subject D, 4.0 × 10^5 cells per well, 100 micrograms, listed as Pept-3): 2 SFU and 4 SFU
SFU, IFNγ ELISpot (Subject E, 5.0 × 10^5 cells per well, 25 micrograms): 3 SFU
SFU, IFNγ ELISpot (Subject E, 5.0 × 10^5 cells per well, 50 micrograms): 6 SFU
SFU, IFNγ ELISpot (Subject E, 5.0 × 10^5 cells per well, 100 micrograms, listed as Pept-3): 3 SFU and 4 SFU
SFU, IFNγ ELISpot (Subject G, 4.0 × 10^5 cells per well, 25 micrograms): 0 SFU
SFU, IFNγ ELISpot (Subject H, 3.5 × 10^5 cells per well, 25 micrograms, listed as Pept-3): 1 SFU and 2 SFU
SFU, IFNγ ELISpot (Subject H, 3.5 × 10^5 cells per well, 50 micrograms, listed as Pept-3): 2 SFU and 4 SFU
SFU, IFNγ ELISpot (Subject I, 5.0 × 10^5 cells per well, 50 micrograms): 1 SFU
SFU, IFNγ ELISpot (Subject J, 5.0 × 10^5 cells per well, 25 micrograms, listed as Pept-3): 4 SFU and 2 SFU
SFU, IFNγ ELISpot (Subject J, 5.0 × 10^5 cells per well, 50 micrograms, listed as Pept-3): 2 SFU and 3 SFU
SFU, IFNγ ELISpot (Subject J, 5.0 × 10^5 cells per well, 100 micrograms, listed as Pept-3): 1 SFU and 2 SFU
SFU, IFNγ ELISpot (Subject K, 3.2 × 10^5 cells per well, 25 micrograms, listed as Pept-3): 2 SFU and 3 SFU
SFU, IFNγ ELISpot (Subject K, 3.2 × 10^5 cells per well, 50 micrograms, listed as Pept-3): 2 SFU and 1 SFU
SFU, IFNγ ELISpot (Subject L, 3.5 × 10^5 cells per well, 25 micrograms): 1 SFU
SFU, IFNγ ELISpot (Subject M, 2.3 × 10^5 cells per well, 25 micrograms): 0 SFU
SFU, IFNγ ELISpot (Subject M, 2.3 × 10^5 cells per well, 100 micrograms): 0 SFU
SFU, IFNγ ELISpot (Subject N, 2.4 × 10^5 cells per well, 50 micrograms, listed as Pept-3): 2 SFU and 1 SFU
SFU, IFNγ ELISpot (Subject N, 2.4 × 10^5 cells per well, 100 micrograms): 0 SFU
SFU, IFNγ ELISpot (Subject P, 3.0 × 10^5 cells per well, 50 micrograms, listed as Pept-3): 8 SFU and 6 SFU
SFU, IFNγ ELISpot (Subject Q, 3.0 × 10^5 cells per well, 50 micrograms, listed as Pept-3): 1 SFU and 2 SFU
SFU, IFNγ ELISpot (Subject R, 3.0 × 10^5 cells per well, 50 micrograms, listed as Pept-3): 12 SFU and 9 SFU
SFU, IFNγ ELISpot (Subject W, 3.0 × 10^5 cells per well, 50 micrograms): 8 SFU
SFU, IFNγ ELISpot (Subject Y, 2.29 × 10^5 cells per well, 50 micrograms): 3 SFU
T cell response in PBMC samples from children after gluten challenge (general increase in SFU in each child, Tables 2-5): induce a T cell response
